Test results taken from PubChem BioAssay (NCI).
Values joined by “and” are separate entries in the source; they are usually repeats but may differ in a detail not shown here. Equal values may be shown once.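 Each compound was tested at five concentrations against cells in 96-well plates for 48 hours. Abbreviation: GI50, concentration required for 50% inhibition of growth. The concentration for full growth arrest is given as TGI.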

Legend:
Assay in all cases: NCI tumour cell line growth inhibition, 48 h
[1] = system: HCC-2998 colon
[2] = system: HCT-116 colon
[3] = system: LOX IMVI melanoma
[4] = system: MALME-3M melanoma
[5] = system: NCI-H460 lung
[6] = system: OVCAR-3 ovarian
[7] = system: SF-539 CNS
[8] = system: SK-MEL-28 melanoma
[9] = system: SN12C renal
[10] = system: UO-31 renal

Row | Compound | GI50 [1] | TGI [1] | GI50 [2] [µM] | TGI [2] | GI50 [3] [µM] | TGI [3] | GI50 [4] [µM] | TGI [4] [µM] | GI50 [5] | TGI [5] | GI50 [6] [µM] | TGI [6] | GI50 [7] | TGI [7] | GI50 [8] | TGI [8] | GI50 [9] | TGI [9] | GI50 [10] | TGI [10]
1 | COc1cc(C(=O)n2nc(N3CCN(C)CC3)c3cc(N)ccc32)cc(OC)c1OC | 3.6 µM | 14.3 µM | 3.84 | > 100 µM | 4.23 | 17.1 µM | 5.12 | 50.3 | 4.34 µM | > 100 µM | 2.39 | 5.62 µM | 2.86 µM | 10.1 µM | 14 µM | 99.4 µM | 4.42 µM | > 100 µM | 2.87 µM | 18.1 µM
2 | Cn1c2cccc3nnc4cccc(c4c32)n1C | – | > 100 µM | – | > 100 µM | – | > 100 µM | – | > 100 | – | > 100 µM | – | > 100 µM | – | > 100 µM | – | > 100 µM | – | > 100 µM | – | > 100 µM
3 | COc1ccc(Nc2ccnc(NCCCNc3ccnc4cc(Cl)ccc34)n2)cc1 | 1.01 µM | 2.61 µM | 0.374 | 1.54 µM | 0.322 | 1.27 µM | 1.36 | 3.08 | 1.27 µM | 2.85 µM | 1.56 | 3.24 µM | 0.169 µM | 0.352 µM | 0.434 µM | 1.66 µM | 1.59 µM | 8.94 µM | 0.879 µM | 2.18 µM
4 | O=C1C=CC2(C=C1)CCN=c1c(O)c3c(c(O)c12)=NC=N3 | 18.5 µM and > 100 µM | 32.6 µM and > 100 µM | – | 22.5 µM and > 100 µM | – | 15.1 µM and > 100 µM | – | 4.42 | 12.2 µM and > 100 µM | 30 µM and > 100 µM | – | 25 µM and > 100 µM | 13.8 µM and > 100 µM | 26.9 µM and > 100 µM | 15.6 µM and > 100 µM | 29.4 µM and > 100 µM | 14.5 µM and > 100 µM | 29.4 µM and > 100 µM | 14.5 µM and > 100 µM | 30.5 µM and > 100 µM
5 | CCOC(=O)/C=C1\Nc2ccccc2-n2nnnc21 | – | > 100 µM | – | > 100 µM | – | > 100 µM | – | > 100 | – | > 100 µM | – | > 100 µM | – | > 100 µM | – | > 100 µM | – | > 100 µM | – | > 100 µM
6 | O=C(Nc1ccc(Br)c(Cl)c1)c1cc(F)ccc1O | 1.63 µM | > 22 µM | 0.423 | 2.08 µM | 0.553 | 3.04 µM | 0.263 | 1.99 | 0.675 µM | > 14.8 µM | 0.481 | > 50 µM | 0.771 µM | 6.32 µM | 0.421 µM | 3.87 µM | 0.533 µM | 8.91 µM | 0.153 µM | 1.89 µM
